Reference: patent US20250066351A1, “PYRAZOLO[1,5-A]PYRIDIN-2,3-YL AMIDES AS KV7 CHANNEL ACTIVATORS” (Biohaven Therapeutics Ltd., priority 2022, published 2025)

The compounds below were run against T1, hKv7.2/7.3 (Homo sapiens, UniProt O43525+O43526) (assay: Kv7.2/7.3 Activation Assay, QPatch planar patch-clamp single concentration screen). Conditions: increase in current over baseline, Kv7.2/Kv7.3 co-expressing HEK cells, compound concentration 3 μM, steady-state current at end of 2 s pulse to −30 mV.
T1 construct: host or cells: HEK cells, tetracycline-inducible expression
Assay type: cell-based
Method: The ability of compounds to potentiate K-currents in Kv7.2/7.3 containing HEK cells was assessed using planar patch-clamp on the QPatch automated screening platform.
Cell Line: The hKv7.2/7.3 cell line was obtained from Chantest (Cleveland, OH 44128) cat. #CT6147. These HEK cells will express the Kv7.2/7.3 ion channels when induced.
Cell Culture: Cells were maintained in a media containing DMEM/F12; 50/50 (GIBCO cat. #11330), 10% Fetal Bovine Serum (FBS) (GIBCO cat. #26140), 100 units/mL Penicillin-Streptomycin (GIBCO cat. #15140), 0.005 mg/mL Blasticidin (INVIVOGEN cat. #ant-bl-1), 0.5 mg/mL Geneticin (GIBCO cat. #10131), 0.1 mg/mL Zeocin (GIBCO cat. #R25001). Cells used in the electrophysiology assay were maintained in a media without Blasticidin, Geneticin and Zeocin for 2 days and channel expression was induced by adding tetracycline (BIOLINE cat. #BIO-87030) at a final concentration of […]. Cells were grown in T-175 flask to ˜75% confluency. Currents were recorded 24 hours after channel induction.
Compound Plates: Test compounds were prepared by performing serial dilutions on a Biomek NX^P (BECKMAN COULTER). Final dilutions were made in external recording solution with a final DMSO concentration of 0.1% DMSO. For single concentration screens each plate had 10 μM retigabine as a positive control and 0.1% DMSO as a negative control.
Electrophysiology: On the day of the experiment cells were washed with Hank's Balanced Salt Solution (HBBS) (GIBCO cat. #14175) and harvested with Tryple (GIBCO cat. #12604). Cells were then centrifuged at 2000 rpm for 5 minutes and resuspended in CHO—S-SFM (GIBCO cat. #12052) at […]. Cells were stirred for 30 minutes before experiments were started. External recording solution contained (in mM): NaCl (145), KCl (4), CaCl2 (2), MgCl2 (1), HEPES (10) and Glucose (10); pH was adjusted to 7.4 with NaOH and the osmolarity was adjusted to 300-305 mOsM with sucrose if necessary. Internal solution contained (in mM): KCl (125), KF (10), EGTA (5), Na2ATP (5), MgCl2 (3.2), HEPES (5); pH was adjusted to 7.2 with KOH and the osmolarity was adjusted to 298-302 mOsM with sucrose.
Potassium channel activity was measured on the QPatch HTX (Sophion Bioscience) using QPlates with 48-wells/plate. Each cell was taken as an independent experiment and only one compound was tested per well. Potassium channel activity was elicited by holding at −80 mV and stepping to −30 mV for 2 s followed by a 100 ms pulse to −120 mV.
Single concentration screen: Baseline conditions were obtained by recording 5 sweeps in the external solution only, this was repeated for three applications of the external solution. The effect of test compounds on elicited current was then assessed by recording 5 sweeps in the presence of a 3 μM compound solution. The steady-state current at the end of the 2 s pulse to −30 mV was measured to determine the fold increase from baseline.

| SMILES | QPatch Kv7.2/7.3 Activity |
| --- | --- |
| C[C@@](O)(CC(=O)Nc1nn2ccc(C(F)(F)F)cc2c1C1CCC1)c1ccccc1 [Example 34, (R)-N-(3-cyclobutyl-5-(trifluoromethyl)pyrazolo [1,5-a]pyridin-2-yl)-3-hydroxy-3-phenylbutanamide] | − (<1.2-fold (−)) |
| C[C@@](O)(CC(=O)Nc1nn2ccc(C(F)(F)F)cc2c1C1CCC1)c1ccccn1 [Example 35, (R)-N-(3-cyclobutyl-5-(trifluoromethyl)pyrazolo [1,5-a]pyridin-2-yl)-3-hydroxy-3-(pyridin-2-yl)butanamide] | + (2.0-3.99 (+)) |
| C[C@@](O)(CC(=O)Nc1nn2ccc(C#N)cc2c1C1CCC1)c1ccccn1 [Example 36, (R)-N-(5-cyano-3-cyclobutylpyrazolo[1,5-a]pyridin-2-yl)-3-hydroxy-3-(pyridin-2-yl)butanamide] | + (2.0-3.99 (+)) |
| C[C@@](O)(CC(=O)Nc1nn2ccc(C(F)(F)F)cc2c1-c1ccc(F)cc1)c1ccccn1 [Example 37, (R)-N-(3-(4-fluorophenyl)-5-(trifluoromethyl)pyrazolo [1,5-a]pyridin-2-yl)-3-hydroxy-3-(pyridin-2-yl)butanamide] | ++ (4.0-5.99 (++)) |
| C[C@@](O)(CC(=O)Nc1nn2ccc(C(F)(F)F)cc2c1-c1ccccc1)c1ccccn1 [Example 38, (R)-3-hydroxy-N-(3-phenyl-5-(trifluoromethyl)pyrazolo [1,5-a]pyridin-2-yl)-3-(pyridin-2-yl)butanamide] | ++ (4.0-5.99 (++)) |
| C[C@@](O)(CC(=O)Nc1nn2ccc(C(F)(F)F)cc2c1-c1cccc(F)c1)c1ccccn1 [Example 39, (R)-N-(3-(3-fluorophenyl)-5-(trifluoromethyl)pyrazolo [1,5-a]pyridin-2-yl)-3-hydroxy-3-(pyridin-2-yl)butanamide] | + (2.0-3.99 (+)) |
| Cc1ccc(-c2c(NC(=O)C[C@@](C)(O)c3ccccn3)nn3ccc(C(F)(F)F)cc23)cc1 [Example 40, (R)-3-hydroxy-3-(pyridin-2-yl)-N-(3-(p-tolyl)-5-(trifluoromethyl)pyrazolo[1,5-a]pyridin-2-yl)butanamide] | + (2.0-3.99 (+)) |
| C[C@](O)(CC(=O)Nc1nn2ccc(C(F)(F)F)cc2c1C1CCC1)c1ccccn1 [Example 41, (S)-N-(3-cyclobutyl-5-(trifluoromethyl)pyrazolo [1,5-a]pyridin-2-yl)-3-hydroxy-3-(pyridin-2-yl)butanamide] | ++ (4.0-5.99 (++)) |
| C[C@](O)(CC(=O)Nc1nn2ccc(C(F)(F)F)cc2c1-c1ccc(F)cc1)c1ccccn1 [Example 42, (S)-N-(3-(4-fluorophenyl)-5-(trifluoromethyl)pyrazolo [1,5-a]pyridin-2-yl)-3-hydroxy-3-(pyridin-2-yl)butanamide] | + (2.0-3.99 (+)) |
| C[C@](O)(CC(=O)Nc1nn2ccc(C#N)cc2c1C1CCC1)c1ccccn1 [Example 43, (S)-N-(5-cyano-3-cyclobutylpyrazolo[1,5-a]pyridin-2-yl)-3-hydroxy-3-(pyridin-2-yl)butanamide] | + (2.0-3.99 (+)) |
| CC(C)(O)CC(=O)Nc1nn2ccc(C(F)(F)F)cc2c1-c1ccc(Cl)s1 [Example 44, N-(3-(5-chlorothiophen-2-yl)-5-(trifluoromethyl)pyrazolo [1,5-a]pyridin-2-yl)-3-hydroxy-3-methylbutanamide] | + (2.0-3.99 (+)) |
| CC(C)(O)CC(=O)Nc1nn2ccc(C(F)(F)F)cc2c1-c1ccc(Cl)nc1 [Example 45, N-(3-(6-chloropyridin-3-yl)-5-(trifluoromethyl)pyrazolo [1,5-a]pyridin-2-yl)-3-hydroxy-3-methylbutanamide] | +/− (1.2-1.99-fold (+/−)) |
| CC(C)(O)CC(=O)Nc1nn2ccc(C(F)(F)F)cc2c1-c1ccccc1F [Example 46, N-(3-(2-fluorophenyl)-5-(trifluoromethyl)pyrazolo [1,5-a]pyridin-2-yl)-3-hydroxy-3-methylbutanamide] | +/− (1.2-1.99-fold (+/−)) |
| Cc1cccc(-c2c(NC(=O)CC(C)(C)O)nn3ccc(C(F)(F)F)cc23)c1 [Example 47, 3-hydroxy-3-methyl-N-(3-(m-tolyl)-5-(trifluoromethyl)pyrazolo [1,5-a]pyridin-2-yl)butanamide] | + (2.0-3.99 (+)) |
| CC(C)(O)CC(=O)Nc1nn2ccc(C(F)(F)F)cc2c1-c1cccc(Cl)c1 [Example 48, N-(3-(3-chlorophenyl)-5-(trifluoromethyl)pyrazolo [1,5-a]pyridin-2-yl)-3-hydroxy-3-methylbutanamide] | + (2.0-3.99 (+)) |
| CC(C)(O)CC(=O)Nc1nn2ccc(C(F)(F)F)cc2c1-c1ccc(OC(F)(F)F)cc1 [Example 49, 3-hydroxy-3-methyl-N-(3-(4-(trifluoromethoxy)phenyl)-5-(trifluoromethyl)pyrazolo [1,5-a]pyridin-2-yl)butanamide] | + (2.0-3.99 (+)) |
| CC(C)(O)CC(=O)Nc1nn2ccc(C(F)(F)F)cc2c1-c1ccc(C(F)(F)F)cc1 [Example 50, 3-hydroxy-3-methyl-N-(5-(trifluoromethyl)-3-(4-(trifluoromethyl)phenyl)pyrazolo [1,5-a]pyridin-2-yl)butanamide] | + (2.0-3.99 (+)) |
| Cc1ccccc1-c1c(NC(=O)CC(C)(C)O)nn2ccc(C(F)(F)F)cc12 [Example 51, 3-hydroxy-3-methyl-N-(3-(o-tolyl)-5-(trifluoromethyl)pyrazolo [1,5-a]pyridin-2-yl)butanamide] | +/− (1.2-1.99-fold (+/−)) |
| Cn1cc(-c2c(NC(=O)CC(C)(C)O)nn3ccc(C(F)(F)F)cc23)cn1 [Example 52, 3-hydroxy-3-methyl-N-(3-(1-methyl-1H-pyrazol-4-yl)-5-(trifluoromethyl)pyrazolo [1,5-a]pyridin-2-yl)butanamide] | − (<1.2-fold (−)) |
| CC(C)(O)CC(=O)Nc1nn2ccc(Cl)cc2c1C1CCC1 [Example 53, N-(5-chloro-3-cyclobutylpyrazolo[1,5-a]pyridin-2-yl)-3-hydroxy-3-methylbutanamide] | + (2.0-3.99 (+)) |
| Cn1cc(-c2c(NC(=O)CC(C)(C)O)nn3ccc(C(F)(F)F)cc23)nn1 [Example 54, 3-hydroxy-3-methyl-N-(3-(1-methyl-1H-1,2,3-triazol-4-yl)-5-(trifluoromethyl)pyrazolo [1,5-a]pyridin-2-yl)butanamide] | − (<1.2-fold (−)) |
| CC(C)(O)CC(=O)Nc1nn2ccc(C(F)(F)F)cc2c1-c1ccc(F)c(F)c1 [Example 55, N-(3-(3,4-difluorophenyl)-5-(trifluoromethyl)pyrazolo [1,5-a]pyridin-2-yl)-3-hydroxy-3-methylbutanamide] | + (2.0-3.99 (+)) |
| CC(C)(O)CC(=O)Nc1nn2ccc(C(F)(F)F)cc2c1-c1cc(F)cc(F)c1 [Example 56, N-(3-(3,5-difluorophenyl)-5-(trifluoromethyl)pyrazolo [1,5-a]pyridin-2-yl)-3-hydroxy-3-methylbutanamide] | + (2.0-3.99 (+)) |
| CC(C)(O)CC(=O)Nc1nn2ccc(Cl)cc2c1-c1ccc(F)cc1 [Example 58, N-(5-chloro-3-(4-fluorophenyl)pyrazolo [1,5-a]pyridin-2-yl)-3-hydroxy-3-methylbutanamide] | + (2.0-3.99 (+)) |
| CC(C)(C)CC(=O)Nc1nn2ccc(C#N)cc2c1-c1ccc(F)cc1 [Example 59, N-(5-cyano-3-(4-fluorophenyl)pyrazolo [1,5-a]pyridin-2-yl)-3,3-dimethylbutanamide] | + (2.0-3.99 (+)) |
